# Source: patent publication US20170037028A1 (BAYER PHARMA AKTIENGESELLSCHAFT, priority 2013, published 2017)
# Target: T1, GLUT1 (Homo sapiens, UniProt P11166)
# T1 sequence (P11166 1-492): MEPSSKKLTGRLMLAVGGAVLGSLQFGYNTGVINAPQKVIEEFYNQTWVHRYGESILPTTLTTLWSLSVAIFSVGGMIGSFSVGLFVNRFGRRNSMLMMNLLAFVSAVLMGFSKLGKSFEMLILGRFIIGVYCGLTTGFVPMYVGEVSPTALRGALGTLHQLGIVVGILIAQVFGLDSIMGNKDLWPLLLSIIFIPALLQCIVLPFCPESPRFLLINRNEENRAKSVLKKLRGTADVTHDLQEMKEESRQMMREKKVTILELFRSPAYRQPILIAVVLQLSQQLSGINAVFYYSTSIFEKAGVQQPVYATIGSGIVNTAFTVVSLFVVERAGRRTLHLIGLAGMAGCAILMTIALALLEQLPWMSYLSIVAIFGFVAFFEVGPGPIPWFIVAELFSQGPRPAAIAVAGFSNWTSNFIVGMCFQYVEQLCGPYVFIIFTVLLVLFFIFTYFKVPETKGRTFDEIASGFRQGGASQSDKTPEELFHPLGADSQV
# Experiment: Indirect measurement of GLUT1 activity by quantification of intracellular ATP levels (glucose induced ATP increase)
# Assay type: cell-based
# Set-up: endogenous in cells; host or cells: DLD1 or CHO-K1
# Conditions: read-out: IC50 regarding glucose induced ATP increase (GLUT1 inhibition)
# Outline: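 DLD1 or CHO-K1 cells were starved overnight in glucose-free medium with 1% FCS, then combined with an oxidative phosphorylation inhibitor. GLUT1 activity was read as glucose-induced ATP increase, GLUT2 as fructose-induced. Intracellular ATP was quantified by CellTiter-Glo luminescence.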
row,IC50,SMILES
1,1.2 nM,"COc1cc2c(C(=O)Nc3c(C)nn(Cc4ccc(C#N)cc4)c3C)cc(C(N)=O)nc2cc1F [Example 254, N^4-[1-(4-cyanobenzyl)-3,5-dimethyl-1H-pyrazol-4-yl]-7-fluoro-6-methoxyquinoline-2,4-dicarboxamide]"
2,1.4 nM,"Cc1nn(Cc2ccc(C#N)cc2)c(C)c1NC(=O)c1cc(C(N)=O)nc2c(Cl)cccc12 [Example 255, 8-chloro-N^4-[1-(4-cyanobenzyl)-3,5-dimethyl-1H-pyrazol-4-yl]quinoline-2,4-dicarboxamide]"
3,2.4 nM,"Cc1cc2c(C(=O)Nc3c(C)nn(Cc4ccc(C#N)cc4)c3C)cc(C(N)=O)nc2cc1F [Example 256, N^4-[1-(4-cyanobenzyl)-3,5-dimethyl-1H-pyrazol-4-yl]-7-fluoro-6-methylquinoline-2,4-dicarboxamide]"
4,2.4 nM,"Cc1nn(Cc2ccc(C#N)cc2)c(C)c1NC(=O)c1cc(C(N)=O)nc2cccc(C)c12 [Example 257, N^4-[1-(4-cyanobenzyl)-3,5-dimethyl-1H-pyrazol-4-yl]-5-methylquinoline-2,4-dicarboxamide]"
5,1 nM,"COc1ccc2nc(C(N)=O)cc(C(=O)Nc3c(C)nn(Cc4ccc(C#N)cc4)c3C)c2c1 [Example 258, N^4-[1-(4-cyanobenzyl)-3,5-dimethyl-1H-pyrazol-4-yl]-6-methoxyquinoline-2,4-dicarboxamide]"
6,9.7 nM,"Cc1nn(Cc2ccc(C#N)cc2)c(C)c1NC(=O)c1cc(C(N)=O)nc2ccccc12 [Example 259, N^4-[1-(4-cyanobenzyl)-3,5-dimethyl-1H-pyrazol-4-yl]quinoline-2,4-dicarboxamide]"
7,4.7 nM,"Cc1nn(Cc2ccc(C#N)cc2)c(C)c1NC(=O)c1cc(C(N)=O)nc2cc(Cl)ccc12 [Example 260, 7-chloro-N^4-[1-(4-cyanobenzyl)-3,5-dimethyl-1H-pyrazol-4-yl]quinoline-2,4-dicarboxamide]"
8,0.5 nM,"Cc1nn(Cc2ccc(C#N)cc2)c(C)c1NC(=O)c1cc(C(N)=O)nc2ccc(Cl)cc12 [Example 261, 6-chloro-N^4-[1-(4-cyanobenzyl)-3,5-dimethyl-1H-pyrazol-4-yl]quinoline-2,4-dicarboxamide]"
9,1.2 nM,"Cc1nn(Cc2ccc(C#N)cc2)c(C)c1NC(=O)c1cc(C(N)=O)nc2cccc(F)c12 [Example 262, N^4-[1-(4-cyanobenzyl)-3,5-dimethyl-1H-pyrazol-4-yl]-5-fluoroquinoline-2,4-dicarboxamide]"
10,3.9 nM,"Cc1nn(Cc2ccc(C#N)cc2)c(C)c1NC(=O)c1cc(C(N)=O)nc2c(F)cccc12 [Example 263, N^4-[1-(4-cyanobenzyl)-3,5-dimethyl-1H-pyrazol-4-yl]-8-fluoroquinoline-2,4-dicarboxamide]"
11,2.6 nM,"Cc1ccc2nc(C(N)=O)cc(C(=O)Nc3c(C)nn(Cc4ccc(C#N)cc4)c3C)c2c1 [Example 264, N^4-[1-(4-cyanobenzyl)-3,5-dimethyl-1H-pyrazol-4-yl]-6-methylquinoline-2,4-dicarboxamide]"
12,6.6 nM,"COc1cc(C(=O)Nc2c(C)nn(Cc3ccc(C#N)cc3)c2C)c2cc(F)ccc2n1 [Example 265, N-[1-(4-cyanobenzyl)-3,5-dimethyl-1H-pyrazol-4-yl]-6-fluoro-2-methoxyquinoline-4-carboxamide]"
13,1 nM,"Cc1nn(Cc2ccccc2C#N)c(C)c1NC(=O)c1cc(C(N)=O)nc2cc(F)ccc12 [Example 266, N^4-[1-(2-cyanobenzyl)-3,5-dimethyl-1H-pyrazol-4-yl]-7-fluoroquinoline-2,4-dicarboxamide]"
14,2.6 nM,"Cc1nn(Cc2ccccc2C#N)c(C)c1NC(=O)c1cc(C(N)=O)nc2cccc(F)c12 [Example 267, N^4-[1-(2-cyanobenzyl)-3,5-dimethyl-1H-pyrazol-4-yl]-5-fluoroquinoline-2,4-dicarboxamide]"
15,0.6 nM,"Cc1nn(Cc2ccccc2C#N)c(C)c1NC(=O)c1cc(C(N)=O)nc2ccc(Br)cc12 [Example 268, 6-bromo-N^4-[1-(2-cyanobenzyl)-3,5-dimethyl-1H-pyrazol-4-yl]quinoline-2,4-dicarboxamide]"
16,1.5 nM,"Cc1nn(Cc2ccccc2C#N)c(C)c1NC(=O)c1cc(C(N)=O)nc2c(F)cc(Cl)cc12 [Example 269, 6-chloro-N^4-[1-(2-cyanobenzyl)-3,5-dimethyl-1H-pyrazol-4-yl]-8-fluoroquinoline-2,4-dicarboxamide]"

row,IC50,SMILES
1,1.8 nM,"Cc1c(NC(=O)c2cc(C(N)=O)nc3cc(F)c(Cl)cc23)c(C(F)(F)F)nn1Cc1ccccc1C#N [Example 270, 6-chloro-N^4-[1-(2-cyanobenzyl)-5-methyl-3-(trifluoromethyl)-1H-pyrazol-4-yl]-7-fluoroquinoline-2,4-dicarboxamide]"
2,3.6 nM,"Cc1c(NC(=O)c2cc(C(N)=O)nc3ccccc23)c(C(F)(F)F)nn1Cc1ccccc1C#N [Example 271, N^4-[1-(2-cyanobenzyl)-5-methyl-3-(trifluoromethyl)-1H-pyrazol-4-yl]quinoline-2,4-dicarboxamide]"
3,2.5 nM,"Cc1c(NC(=O)c2cc(C(N)=O)nc3cc(F)ccc23)c(C(F)(F)F)nn1Cc1ccccc1C#N [Example 272, N^4-[1-(2-cyanobenzyl)-5-methyl-3-(trifluoromethyl)-1H-pyrazol-4-yl]-7-fluoroquinoline-2,4-dicarboxamide]"
4,5.9 nM,"Cc1c(NC(=O)c2cc(C(N)=O)nc3cccc(F)c23)c(C(F)(F)F)nn1Cc1ccccc1C#N [Example 273, N^4-[1-(2-cyanobenzyl)-5-methyl-3-(trifluoromethyl)-1H-pyrazol-4-yl]-5-fluoroquinoline-2,4-dicarboxamide]"
5,1 nM,"Cc1c(NC(=O)c2cc(C(N)=O)nc3ccc(Br)cc23)c(C(F)(F)F)nn1Cc1ccccc1C#N [Example 274, 6-bromo-N^4-[1-(2-cyanobenzyl)-5-methyl-3-(trifluoromethyl)-1H-pyrazol-4-yl]quinoline-2,4-dicarboxamide]"
6,1.1 nM,"COc1ccc(Cn2nc(C)c(NC(=O)c3cc(C(N)=O)nc4cc(F)ccc34)c2C)cc1 [Example 275, 7-fluoro-N^4-[1-(4-methoxybenzyl)-3,5-dimethyl-1H-pyrazol-4-yl]quinoline-2,4-dicarboxamide]"
7,1.3 nM,"COc1ccc(Cn2nc(C)c(NC(=O)c3cc(C(N)=O)nc4c(F)cc(Cl)cc34)c2C)cc1 [Example 276, 6-chloro-8-fluoro-N^4-[1-(4-methoxybenzyl)-3,5-dimethyl-1H-pyrazol-4-yl]quinoline-2,4-dicarboxamide]"
8,1.8 nM,"COc1ccc(Cn2nc(C(F)(F)F)c(NC(=O)c3cc(C(N)=O)nc4ccccc34)c2C)cc1 [Example 277, N^4-[1-(4-methoxybenzyl)-5-methyl-3-(trifluoromethyl)-1H-pyrazol-4-yl]quinoline-2,4-dicarboxamide]"
9,1.4 nM,"COc1ccc(Cn2nc(C(F)(F)F)c(NC(=O)c3cc(C(N)=O)nc4cc(F)c(Cl)cc34)c2C)cc1 [Example 278, 6-chloro-7-fluoro-N^4-[1-(4-methoxybenzyl)-5-methyl-3-(trifluoromethyl)-1H-pyrazol-4-yl]quinoline-2,4-dicarboxamide]"
10,1.4 nM,"COc1ccc(Cn2nc(C(F)(F)F)c(NC(=O)c3cc(C(N)=O)nc4cc(F)c(F)cc34)c2C)cc1 [Example 279, 6,7-difluoro-N^4-[1-(4-methoxybenzyl)-5-methyl-3-(trifluoromethyl)-1H-pyrazol-4-yl]quinoline-2,4-dicarboxamide]"
11,1.1 nM,"COc1ccc(Cn2nc(C(F)(F)F)c(NC(=O)c3cc(C(N)=O)nc4ccccc34)c2C)cn1 [Example 280, N^4-{1-[(6-methoxypyridin-3-yl)methyl]-5-methyl-3-(trifluoromethyl)-1H-pyrazol-4-yl}quinoline-2,4-dicarboxamide]"
12,1.3 nM,"COc1ccc(Cn2nc(C(F)(F)F)c(NC(=O)c3cc(C(N)=O)nc4cc(F)c(Cl)cc34)c2C)cn1 [Example 281, 6-chloro-7-fluoro-N^4-{1-[(6-methoxypyridin-3-yl)methyl]-5-methyl-3-(trifluoromethyl)-1H-pyrazol-4-yl}quinoline-2,4-dicarboxamide]"
13,3.2 nM,"COc1ccc(Cn2nc(C)c(NC(=O)c3cc(C(N)=O)nc4ccccc34)c2C)cn1 [Example 282, N^4-{1-[(6-methoxypyridin-3-yl)methyl]-3,5-dimethyl-1H-pyrazol-4-yl}quinoline-2,4-dicarboxamide]"
14,1.2 nM,"COc1ccc(Cn2nc(C)c(NC(=O)c3cc(C(N)=O)nc4cc(F)c(Cl)cc34)c2C)cn1 [Example 283, 6-chloro-7-fluoro-N^4-{1-[(6-methoxypyridin-3-yl)methyl]-3,5-dimethyl-1H-pyrazol-4-yl}quinoline-2,4-dicarboxamide]"
15,9 nM,"COc1ccc(CCCn2nc(C)c(NC(=O)c3cc(C(N)=O)nc4ccccc34)c2C)cc1 [Example 284, N^4-{1-[3-(4-methoxyphenyl)propyl]-3,5-dimethyl-1H-pyrazol-4-yl}quinoline-2,4-dicarboxamide]"
16,3.4 nM,"Cc1nn(Cc2ccncc2C#N)c(C)c1NC(=O)c1cc(C(N)=O)nc2cc(F)c(Cl)cc12 [Example 285, 6-chloro-N^4-{1-[(3-cyanopyridin-4-yl)methyl]-3,5-dimethyl-1H-pyrazol-4-yl}-7-fluoroquinoline-2,4-dicarboxamide]"
